Measured values: paper PMC3894558, “Chemical signatures and new drug targets for gametocytocidal drug development” (Scientific Reports, 2014)
Where two headings read alike, the source gives them in different places.

Tested on: P. falciparum 3D7 gametocytes
Assay: alamarBlue gametocyte viability assay, strain 3D7
Assay type: cell-based, Plasmodium falciparum
Conditions: Malaria Box; for Max Resp: DMSO set at 0%, 100 nM epoxomicin set at -100%; for Curve Class / IC50: stages III-V 3D7 gametocytes; for IC50: 11 concentrations, 1:3 dilution; call rule not given here

Compound | Max Resp | Curve Class | IC50 (read-out: IC50) | IC50
O=C(Nc1ccccc1O)c1ccc(-c2ccc(Cl)cc2Cl)o1 [MMV665948] | -52% | -1.4 | 5.9 µM | 
CC(C)(C)c1ccc(C(=O)Nc2nc3ccccc3s2)cc1 [MMV142383] | -10% | 4 |  | Inactive
CCCN(CCC)CC(O)COc1ccccc1C(=O)Nc1ccccc1 (stereo not drawn) [MMV006455] | -40% | -1.2 | 0.743 µM | 
O=C(c1ccccc1F)N(Cc1ccc(Cl)cc1)c1ccccn1 [MMV665899] | -26% | 4 |  | Inactive
CN1CCN(c2ncnc3c2[nH]c2ccc(Cl)cc23)CC1 [MMV396704] | -57% | -2.2 | 37.2 µM | 
O=c1c2c([nH]c3ccccc13)CCCC2 [MMV665843] | -7% | 4 |  | Inactive
CCOC(=O)c1cnc2c(C)cc(C)cc2c1Nc1ccc(OC)c(OC)c1 [MMV008294] | -8% | 4 |  | Inactive
CCN(CC)CCCNc1nc(-c2ccc(Cl)cc2)nc2ccccc12 [MMV665961] | -95% | -2.1 | 16.6 µM | 
CN(C)CCNc1cc(-c2ccccc2)nc2ccccc12 [MMV006704] | -79% | -2.2 | 29.6 µM | 
CCOc1cc(CNC(C)C(O)c2ccccc2)cc(Cl)c1OCC (stereo not drawn) [MMV396633] | -72% | -2.2 | 11.8 µM | 
Brc1ccc(Nc2nc3ccccc3nc2Nc2ccc(Br)cc2)cc1 [MMV007224] | -96% | -2.1 | 20.9 µM | 
Br.CCN(CC)S(=O)(=O)c1ccc(-c2csc(Nc3ccc(C)c(C)c3)n2)cc1 [MMV009108] | -14% | 4 |  | Inactive
COc1ccc2nc(C)cc(Nc3ccccc3O)c2c1 [MMV274073] | -66% | -2.2 | 23.5 µM | 
CCc1ccc(Nc2cc(C)nc3nc(C)nn23)cc1 [MMV007374] | -9% | 4 |  | Inactive
COc1ccc(C)c2sc(N(Cc3cccnc3)C(=O)c3ccc(C#N)cc3)nc12 [MMV001241] | -48% | -2.2 |  | Inactive
COc1cc2c(cc1OC)C1=NNC(=O)C1=NC(C)(C)C2 [MMV084940] | -133% | -1.1 | 1.32 µM | 
COc1ccc(Br)cc1C1Nc2ccc3ccccc3c2C2=C1C(=O)CC(c1ccccc1)C2 (stereo not drawn) [MMV020885] | -29% | 4 |  | Inactive
COc1cc2c3cc1Oc1c(OC)c(OC)cc4c1C(Cc1ccc(O)c(c1)Oc1ccc(cc1)CC3N(C)CC2)N(C)CC4.Cl (stereo not drawn) [MMV007474] | -93% | -1.1 | 5.9 µM | 

Compound | Max Resp | Curve Class | IC50 (read-out: IC50) | IC50
O=C(Nc1ccc(N2CCCCC2)c(Cl)c1)c1ccc(Br)o1 [MMV019700] | 17% | 4 |  | Inactive
CCN(CC)CCNc1ccnc2cc(Cl)ccc12 [MMV006087] | -66% | -1.2 | 0.372 µM | 
Cl.OC(CNCc1ccccc1)Cn1c2ccccc2c2ccccc21 (stereo not drawn) [MMV000839] | -97% | -1.1 | 8.33 µM | 
Cc1cc(N2CCN(C3CCCC3)CC2)n2c(nc3ccccc32)c1C#N [MMV006706] | -18% | 4 |  | Inactive
COc1ccc(CCN2CCC(CN(C)Cc3cnn(-c4ccccc4)c3)CC2)cc1 [MMV666069] | -86% | -2.1 | 10.5 µM | 
Cc1cc(Nc2cccc(F)c2)nc(NCc2ccccc2)n1 [MMV006319] | -60% | -2.2 | 29.6 µM | 
Cc1cc(NCCN2CCCCC2)c2ccc3ccccc3c2n1 [MMV006203] | -94% | -1.1 | 8.33 µM | 
CCCCCCOC(=O)C1=C(C)NC(=O)NC1c1ccccc1F (stereo not drawn) [MMV007686] | -2% | 4 |  | Inactive
Cc1sc(NC(=O)c2ccco2)c(C(c2cccnc2)N2CCC(Cc3ccccc3)CC2)c1C (stereo not drawn) [MMV396663] | -85% | -2.1 | 16.6 µM | 
COc1cccc(Nc2nc(NCCO)c3ccccc3n2)c1.Cl [MMV011944] | -68% | -2.2 | 14.8 µM | 
Cc1cc(N2CCCC2)nc(Nc2ccc(NC(=O)CCc3ccccc3)cc2)n1 [MMV396669] | -75% | -2.2 | 11.8 µM | 
Cc1ccc(OCCCCCCNCCO)c(C)c1 [MMV666020] | -64% | -2.2 | 37.2 µM | 
CCOc1ccc(C2N(C)c3ccccc3N2C)cc1 [MMV075490] | -38% | -2.2 |  | Inactive
CC(C)(C)C(=O)Nc1ccc(C(=O)Nc2cccc(-c3nc4ccccc4[nH]3)c2)cc1 [MMV665879] | -23% | 4 |  | Inactive
CC(C)(C)c1ccc(C(=O)Nc2c3c(nn2-c2cccc(Cl)c2)CSC3)cc1 [MMV666123] | -6% | 4 |  | Inactive
CCOc1cc(Cl)c(C(C)NC(=O)c2cccc(OC)c2)cc1OCC (stereo not drawn) [MMV665803] | -58% | -2.2 | 29.6 µM | 
COc1ccccc1CNC(=O)CCn1c(=O)[nH]c2ccccc2c1=O [MMV665916] | -1% | 4 |  | Inactive
